According to US20260060910A1, “COMPOSITION FOR ACTIVATING EXTERNAL BARRIER” (Yuki Gosei Kogyo Co., Ltd., priority 2024, published 2026):

System: miRNA contained in exosomes secreted from C2C12 cells
Conditions: exosomes from β-alanine-treated C2C12 cells vs control; microarray; FIG. 4
Experimental: In this example, miRNAs in exosomes were analyzed by microarray.
The exosome solution purified in Example 2 was used for microarray analysis. The microarray experiment was outsourced to Kamakura Techno Science (Kanagawa, Japan). Based on the data obtained, samples with a ratio of 1.5 or more compared to the control and one of the signal values of two samples exceeding 100 were extracted as miRNAs with altered transcription levels.

Compound: NCCC(=O)O [β-alanine]
- number of miRNAs decreased: 14
- number of miRNAs increased: six
